Measured values reported in patent US20110144079A1, “ANTIMICROBIAL SYSTEM” (priority 2008, published 2011).

Tests used:
MRSA [1] = assay: Zone of inhibition on MRSA-seeded agar culture plates; assay type: cell-based, methicillin-resistant S. aureus; details: 40 μL of ionic liquid applied to MRSA-seeded agar culture plates
Description: As used herein, CyMIMCI, refers to 1-alkyl-3-methyl-imidazolium chloride ionic liquids, wherein the alkyl group is a straight chain alkyl group having y carbon atoms.

P. mirabilis NCTC 12442 = assay: Broth microdilution MIC/MBC; assay type: cell-based; details: Proteus mirabilis, NCTC12442
How it was run: (§1)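 Imidazolium salts two-fold diluted in Mueller-Hinton broth over 0.0000625-1% w/v, inoculum 2×10^5 CFU/ml, aerobic 24 h at 37° C., per NCCLS. MBC: 20 μl from no-growth wells plated on MHA, 24 h, scored for 99.9% killing.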

E-MRSA 15 = assay: Broth microdilution MIC/MBC; assay type: cell-based
How it was run: as §1

E. coli NCTC 8196 = assay: Broth microdilution MIC/MBC; assay type: cell-based; details: Escherichia coli, NCTC8196
How it was run: as §1

B. cenocepacia J2315 = assay: Broth microdilution MIC/MBC; assay type: cell-based; details: Burkholderia cenocepacia
How it was run: as §1

S. aureus ATCC 29213 = assay: Broth microdilution MIC/MBC; assay type: cell-based; details: Staphylococcus aureus, ATCC29213
How it was run: as §1

C. tropicalis NCTC 7393 = assay: Broth microdilution MIC/MBC; assay type: cell-based; details: Candida tropicalis, NCTC7393
How it was run: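 NCCLS broth microdilution; MHB; salts 0.0000625–1% w/v, 2-fold; final inoculum 2×10^5 CFU/ml; 24 h, 37 °C, aerobic. MBC = 99.9% kill on MHA subculture of no-growth wells, 24 h.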

P. aeruginosa PA01 = assay: Broth microdilution MIC/MBC; assay type: cell-based; details: Pseudomonas aeruginosa
How it was run: as §1

K. aerogenes NCTC 7427 = assay: Broth microdilution MIC/MBC; assay type: cell-based; details: Klebsiella aerogenes, NCTC7427
How it was run: as §1

[2] = tested on: S. epidermidis ATCC 12228; assay: Broth microdilution MIC/MBC; assay type: cell-based; details: Staphylococcus epidermidis, ATCC12228
How it was run: as §1

[3] = tested on: S. epidermidis ATCC 35984; assay: Broth microdilution MIC/MBC; assay type: cell-based; details: Staphylococcus epidermidis
How it was run: as §1

E. coli PIII = assay: Broth microdilution MIC; assay type: cell-based; details: Escherichia coli
How it was run: as §1

[4] = tested on: Methicillin Resistant Staphylococcus Aureus (MRSA); assay: Kill kinetics, planktonic cell cultures; assay type: cell-based; details: 290 μM
Description: (§2) The kill kinetic data is provided in terms of the measured colony forming units per millilitre (CFU/mL) values, and is also provided graphically in FIGS. 9-11.

[5] = tested on: Staphylococcus Epidermidis; assay: Kill kinetics, planktonic cell cultures; assay type: cell-based; details: 145 μM
Description: as §2

Escherichia Coli = assay: Kill kinetics, planktonic cell cultures; assay type: cell-based; details: 871 μM
Description: as §2

MRSA [6] = assay: Broth microdilution MIC/MBC; assay type: cell-based, methicillin-resistant S. aureus; details: Staphylococcus aureus
How it was run: as §1

CCCCCCCCCCCCn1cc[n+](C)c1.[Cl-] [C12MIMCl, 1-dodecyl-3-methylimidazolium chloride]
Zone Of Inhibition Radius (MRSA [1]): 17 mm
MBC (P. mirabilis NCTC 12442; P. mirabilis NCTC 12442, 99.9% killing): 1160 µM
MIC (P. mirabilis NCTC 12442; P. mirabilis NCTC 12442, 24 h at 37° C.): 580 µM
MBC (E-MRSA 15; E-MRSA 15, 99.9% killing): 73 µM
MIC (E-MRSA 15; E-MRSA 15, 24 h at 37° C.): 18 µM
MBC (E. coli NCTC 8196; E. coli NCTC 8196, 99.9% killing): 73 µM
MIC (E. coli NCTC 8196; E. coli NCTC 8196, 24 h at 37° C.): 73 µM
MBC (B. cenocepacia J2315; B. cenocepacia J2315, 99.9% killing): 580 µM
MIC (B. cenocepacia J2315; B. cenocepacia J2315, 24 h at 37° C.): 290 µM
MBC (S. aureus ATCC 29213; S. aureus ATCC 29213, 99.9% killing): 36 µM
MIC (S. aureus ATCC 29213; S. aureus ATCC 29213, 24 h at 37° C.): 18 µM
MBC (C. tropicalis NCTC 7393; C. tropicalis NCTC 7393, 99.9% killing): 73 µM
MIC (C. tropicalis NCTC 7393; C. tropicalis NCTC 7393, 24 h at 37° C.): 73 µM
MIC (P. aeruginosa PA01; PA01, 24 h, P. aeruginosa PA01, 24 h at 37° C., read-out: MIC): 580 µM
MBC (P. aeruginosa PA01; P. aeruginosa PA01, 99.9% killing): 1160 µM
MBC (K. aerogenes NCTC 7427; K. aerogenes NCTC 7427, 99.9% killing): 145 µM
MIC (K. aerogenes NCTC 7427; K. aerogenes NCTC 7427, 24 h at 37° C.): 73 µM
MBC ([2]; S. epidermidis ATCC 12228, 99.9% killing): 145 µM
MIC ([2]; S. epidermidis ATCC 12228, 24 h at 37° C.): 36 µM
MIC ([3]; ATCC35984, 24 h, S. epidermidis ATCC 35984, 24 h at 37° C.): 36 µM
MBC ([3]; ATCC35984, S. epidermidis ATCC 35984, 99.9% killing): 73 µM
MIC (E. coli PIII): 73 µM
colony forming units per millilitre ([4]; 0 Minutes): 2.08 × 10^8 CFU/mL
colony forming units per millilitre ([4]; 5 Minutes): 2.75 × 10^5 CFU/mL
colony forming units per millilitre ([4]; 10 Minutes): 0.00 CFU/mL
colony forming units per millilitre ([4]; 20 Minutes): 0.00 CFU/mL
colony forming units per millilitre ([4]; 30 Minutes): 0.00 CFU/mL
colony forming units per millilitre ([4]; 45 Minutes): 0.00 CFU/mL
colony forming units per millilitre ([5]; 0 Minutes): 6.25 × 10^7 CFU/mL
colony forming units per millilitre ([5]; 5 Minutes): 1.67 × 10^2 CFU/mL
colony forming units per millilitre ([5]; 10 Minutes): 0.00 CFU/mL
colony forming units per millilitre ([5]; 20 Minutes): 0.00 CFU/mL
colony forming units per millilitre ([5]; 30 Minutes): 0.00 CFU/mL
colony forming units per millilitre ([5]; 45 Minutes): 0.00 CFU/mL
colony forming units per millilitre (Escherichia Coli; 0 Minutes): 1.13 × 10^8 CFU/mL
colony forming units per millilitre (Escherichia Coli; 5 Minutes): 0.00 CFU/mL
colony forming units per millilitre (Escherichia Coli; 10 Minutes): 0.00 CFU/mL
colony forming units per millilitre (Escherichia Coli; 20 Minutes): 0.00 CFU/mL
colony forming units per millilitre (Escherichia Coli; 30 Minutes): 0.00 CFU/mL
colony forming units per millilitre (Escherichia Coli; 45 Minutes): 0.00 CFU/mL
MBC (MRSA [6]; 99.9% killing): 290 µM
MIC (MRSA [6]; 24 h at 37° C.): 36 µM
